What was measured:
[1] = Relative bioavailability; details: in vivo
[2] = tested on: confirmed carriers of the HD gene mutation; experiment: Creatine HCl in patients having HD gene mutation (clinical neurological assessment, MRI); format: in vivo, human; details: 10 to 12 grams/day
Protocol: Patients were confirmed carriers of the HD gene mutation at early stage 1 progression. Each patient was instructed to take 10 to 12 grams/day of creatine HCl. Neurological progression of disease was monitored quarterly as were full blood chemistry profiles. Assessment of neurological progression using magnetic resonance imaging (MRI) was also performed at a minimum of once a year.

[3] = cited from earlier work

Compound	relative bioavailability, greater than creatine monohydrate [1]	progression of disease (clinical neurological assessments or MRI) ([2]; 3.5 years, early stage 1 carriers)	onset of the disease / symptoms ([2]; over the 3.5 year time period)	patients unable to tolerate the maximum dose ([3]; 30 g daily)	those on placebo unable to tolerate the maximal dose when they switched to it ([3]; maximal dose 30 g daily) [%]
CN(CC(=O)O)C(=N)N.Cl [creatine HCl, creatine hydrochloride]	at least 50%	no progression of disease	no symptoms		
CN(CC(=O)O)C(=N)N.O [creatine monohydrate]				about one-third	13
